In experiment [1] the test system is H9c2 cells. As to the kind of experiment: Fas-mediated (rFasL) apoptosis in H9c2 cells, DAPI staining. Particulars: added 16 hours before and present throughout. The format is cell-based, rat. As for the experimental part: (§1) (ii) Cell Line H9c2. Experiments were performed on the embryonic rat heart cell line H9c2. H9c2 cells were cultured in DMEM (Biological Industries, Beit-Haemek, Israel) supplemented with 10% fetal calf serum (FCS), 50 units/ml penicillin G, 50 μg/ml streptomycin sulfate, 2 mg/ml L-glutamine and sodium pyruvate. H9c2 cells were harvested by trypsinization, washed with PBS, diluted to a concentration of 5×10^4 cells/ml with DMEM (high glucose) and cultured at 0.5 ml/well on sterile glass cover slips in 24-well plates.
(c) Activation of the Fas receptor—Fas activation was induced by incubating the cultures with recombinant human Fas Ligand (rFasL; 10 ng/ml) plus the enhancing antibody (1 μg/ml) for the indicated times, according to the manufacturer's recommendations (Alexis Biochemicals, San Diego, Calif.).
(§2) (iv) Determination of Apoptosis by DAPI. Cultures were counterstained with 4′, 6-diamidino-2-phenylindole (DAPI) to visualize the nuclear morphology.
Cultures of embryonic rat heart cell line H9c2 were incubated with rFasL (10 ng/ml) and an enhancing antibody for periods of time of 9, 10 and 24 hours, and apoptosis measured thereafter.
In order to determine whether rasagiline can prevent Fas-mediated apoptosis, the Fas receptor was activated for 9, 10 and 24 hours as described above. Rasagiline (10 μM) was introduced to the culture medium 16 hours before, and was present throughout the apoptosis-inducing protocol (n=3 wells).
Each one of the drugs, at a concentration of either 0.1 or 1.0 μM was introduced to the culture medium 16 hours before, and was presented throughout the apoptosis-inducing protocol (n=3 wells).

The test system of experiment [2] is H9c2 cells. Nature of the experiment: Serum starvation-induced apoptosis in H9c2 cells, DAPI staining. The format is cell-based, rat. The protocol: as §1
(§3) (b) Serum starvation—To induce apoptosis, H9c2 cultures were incubated in the culture medium containing 0% FCS for the indicated times.
as §2
The next apoptosis-inducing stimulus tested was serum starvation ([…], 0% serum in the culture medium). To induce apoptosis, H9c2 cells were incubated in the culture medium containing 0% FCS for 6, 7, 8 or 9 hours. Rasagiline (10 μM) was introduced to the culture medium 2 hours before inducing serum starvation and was present throughout the apoptosis-inducing protocol (n=3 wells).
In another experiment, we repeated the serum starvation protocol, and also tested in the same cultures whether rasagiline can protect against H2O2-induced apoptosis. Rasagiline was introduced to the culture medium 2 hours before inducing serum starvation or adding H2O2, and was present throughout the apoptosis-inducing protocol (n=4 experiments; ˜2000 cells counted).

Experiment [3] deals with neonatal rat ventricular myocytes. As to the kind of experiment: Fas-mediated hypertrophy in cultured neonatal rat ventricular myocytes (ANP mRNA, RT-PCR). It is filed as cell-based. Particulars: rFasL 24 hours; for ANP mRNA elevation induced by Fas activation: 10 μM, 3 experiments per drug. As for the experimental part: In order to test whether rasagiline can prevent the marked hypertrophy induced in cultured neonatal rat ventricular myocytes (for methods, see Yaniv et al., 2002), Fas was activated for 24 hours by incubation with rFasL (10 ng/ml plus 1 μg/ml of the enhancer antibody). Hypertrophy was assessed by determining the mRNA levels (by means of RT-PCR) of the atrial natriuretic peptide (ANP), which is a most common molecular marker of hypertrophy. Rasagiline ([…]) was added to the culture 1 hour before Fas activation and remained in the medium throughout the 24 hours exposure to rFasL.
In order to test whether S(−)—N-propargyl-1-aminoindan and propargylamine have the same effect on marked hypertrophy induced in cultured neonatal rat ventricular myocytes, similar experiments were performed using either propargylamin or S(−)—N-propargyl-1-aminoindan (both at a concentration of 10 μM) instead of rasagiline.

The subject of experiment [4] is H9c2 cells. As to the kind of experiment: Serum starvation-induced apoptosis in H9c2 cells, MTT staining assay. It is filed as cell-based, rat. Particulars: 0.1-10 μM; 0% FCS for 24 hours. The protocol:
as §3

In experiment [5] the test system is neonatal rat ventricular myocytes. As to the kind of experiment: Doxorubicin-induced apoptosis in neonatal rat ventricular myocytes (caspase-3 cleavage). Particulars: 1 or 10 μM, added 24 hours before; 1 μM doxorubicin 24 hours. The format is cell-based. As for the experimental part: In order to test whether propargylamine or S(−)—N-propargyl-1-aminoindan can prevent doxorubicin-induced apoptosis in cultured neonatal rat ventricular myocytes, these drugs (at a concentration of either 1 or 10 μM) were introduced to the culture medium 24 hours before the incubation (24 hours) with 1 μM doxorubicin.

Another experiment has as its system naïve rats. Nature of the experiment: Cardiovascular hemodynamic parameters in naive rats after IV bolus. The format is in vivo, rat. As for the experimental part: As the first step in testing the beneficial in vivo efficacy of the propargylamine derivatives on the cardiac function, we measured key cardiovascular hemodynamic parameters in control naïve rats, and in rats administered IV with a bolus of 1 mg/kg S(−)—N-propargyl-1-aminoindan, followed with a bolus of 10 mg/kg S(−)—N-propargyl-1-aminoindan (Sprague Dawley rats were used, n=3 rats in each group). Measurements were made at baseline, 30 minutes after each drug administration, and 1 hour (recovery) after drug administration.

Experiment [6] concerns Bax, Bcl-2, PKC-ε in hearts of naïve rats. Nature of the experiment: Anti-apoptotic and pro-apoptotic proteins in hearts of naive rats. The format is in vivo, rat. Particulars: 5 mg/kg/day orally for 21 days. The protocol:
In this experiment we tested the effects of propargylamine and S(−)—N-propargyl-1-aminoindan on several key anti-apoptotic and pro-apoptotic proteins in hearts of naïve rats.
The drugs (5 mg/kg/day) were orally administered to rats for 21 days (n=4-6 rats in each group), and measurements were made after sacrifice. […] Furthermore, both propargylamine and S(−)—N-propargyl-1-aminoindan increased the expression of the key anti-apoptotic PKC-ε (FIGS. 9D-9E, respectively).

For experiment [7], the system named is caspase-3 and cytochrome C in CHF rats. As to the kind of experiment: Caspase-3 and cytosolic cytochrome C in volume overload-induced CHF rats (AVF). It is filed as in vivo, rat. As for the experimental part:
(§4) (v) Animals. Studies were conducted on male Sprague Dawley rats (Harlan Laboratories Ltd., Jerusalem, Israel), weighing ˜300 g. The animals were kept in a temperature-controlled room and maintained on standard rat diet (0.5% NaCl). All experiments were performed according to the guidelines of the Technion Committee for Supervision of Animal Experiments (Haifa, Israel). […] Sham-operated rats served as controls. Drugs (or saline as control) were orally administered, starting 7 days prior to surgery (day 0) and were continued for 21 days. Surgery was performed on day 7 and animals sacrified 14 days post-surgery (day 21). Cardiac function was determined by echocardiography on days 0, 10 (3 days post-surgery) and 21 (before sacrifice). After the last echocardiography measurement, rats were sacrified and hearts were analyzed.
Rats were treated as described in Materials and Methods hereinabove and volume overload was induced by surgical creation of an aortocaval fistula (AVF). Sham-operated rats served as controls. 14 days after induction of volume-overload, caspase-3 cleavage and cytosolic cytochrome C, both pro-apoptotic proteins, were analyzed.
In the following experiment we tested whether propargylamine or S(−)—N-propargyl-1-aminoindan can reduce CHF-induced increase in caspase-3 and cytochrome C. Rats were treated and drugs were administered (1 or 7.5 mg/kg/day S(−)—N-propargyl-1-aminoindan, or 5 mg/kg/day propargylamine) as described in Materials and Methods hereinabove.

The next experiment concerns CHF rats. As to the kind of experiment: Echocardiography in volume overload-induced CHF rats (AVF). Particulars: 7.5 mg/kg/day orally, 21 days from 7 days prior to surgery; for Reduction in fractional shortening: day 21 (14 days post-surgery). The format is in vivo, rat. As for the experimental part:
as §4
Rats were treated as described in Materials and Methods hereinabove and volume overload was induced by surgical creation of an aortocaval fistula (AVF). Drugs (7.5 mg/kg/day) were administered according to the protocol described above, starting 7 days prior to surgery (day 0) and during 21 days. Cardiac function was determined by echocardiography, from which two principle parameters, namely, diastolic area and systolic area, were calculated. These parameters were used for calculating the fractional shortening, which is an established measure of the ventricular contraction capacity, according to the equation: Fractional shortening =(diastolic area-systolic area)/diastolic area.

Experiment [8] has as its system neonatal rat ventricular myocytes. As to the kind of experiment: Serum starvation-induced apoptosis in neonatal rat ventricular myocytes (caspase-3 cleavage, Bcl-2). It is filed as cell-based. Particulars: 0.1 μM, added 1 hour before; 0% FCS, 24 hours. The protocol:
Caspase-3 is a protein of the cysteine-aspartic acid protease (caspase) family, known as a key pro-apoptotic protein and therefore as a common marker of apoptosis.
In order to test whether propargylamine can prevent serum starvation-induced apoptosis in cultured neonatal rat ventricular myocytes, we repeated the serum starvation protocol and 0.1 μM propargylamine was introduced to the culture medium 1 hour before serum starvation. As shown in FIGS. 6B-6C, propargylamine attenuated serum starvation-induced apoptosis in neonatal rat ventricular myocytes as indicated both by the drug-induced decrease in caspase 3 cleavage (FIG. 6B) and increase in the expression of mitochondrial Bcl-2, known as an anti-apoptotic protein (FIG. 6C).

The mark [9] stands for this setting: 0.1 or 1.0 μM, ~10 hours incubation with rFasL (~10% apoptosis).
The mark [10] stands for this setting: 10 mg/kg IV bolus, 30 minutes after administration.

With `C#CCN[C@@H]1CCc2ccccc21` [rasagiline, R(+)—N-propargyl-1-aminoindan], the Fas-mediated apoptosis result with H9c2 cells [1] (10 μM, 10 hours incubation with rFasL (~20% apoptosis)) is on record as “completely prevented”. Further, the Serum starvation-induced apoptosis result in the experiment on H9c2 cells [2] (10 μM, added 2 hours before, 9 hrs serum starvation (12% apoptosis)) is “completely prevented”. Further, the “Anti-apoptotic effect, serum starvation” value with H9c2 cells [2] (0.1-10 μM, added 2 hours before, 0% FCS for 24 hours) is “anti-apoptotic effect”. The “Apoptosis induced by serum starvation” value in the experiment on H9c2 cells [2] (Example 3, added 2 hours before, n=4 experiments) is on record as “prevented”. The “Fas-mediated hypertrophy (ANP mRNA)” value in experiment [3] (10 μM/ml, added 1 hour before, preliminary, data not shown) was “prevented Fas-mediated hypertrophy”.

On to `C#CCN[C@H]1CCc2ccccc21` [S(−)—N-propargyl-1-aminoindan], for which the Fas-mediated apoptosis result in the experiment on H9c2 cells [1] (setting [9]) is on record as “completely prevented”. Besides, in the experiment on H9c2 cells [4], the “Anti-apoptotic effect, serum starvation, MTT staining” value is reported as “anti-apoptotic effect”. For the same molecule, in experiment [3], the “ANP mRNA elevation induced by Fas activation” value is “completely blocked”. In addition, in [5], the “Doxorubicin-induced apoptosis (caspase-3 cleavage)” value is “significantly attenuated”. Also, in the experiment with naïve rats (setting [10]), the Cardiac index entry is listed as “markedly increased”, the Cardiac output entry is on record as “markedly increased”, the Heart rate entry is “did not affect” and the “Mean arterial pressure (MAP)” value is listed as “did not affect”. For the same molecule, in the experiment with naïve rats (washout period (recovery, 1 hour after administration)), the “Reversibility of the effect on cardiac function” value was “reversible”. The “Expression of anti-apoptotic PKC-ε” value in [6] is “increased”. The “CHF-induced increase in cytochrome C” value in experiment [7] (1 mg/kg/day orally for 21 days (FIG. 11B)) is given as “significantly reduced”. Also, the “CHF-induced increase in caspase-3” value in experiment [7] (7.5 mg/kg/day orally for 21 days (FIG. 11A)) was “significantly reduced”. In the experiment with CHF rats, the “Reduction in fractional shortening” value is recorded as “completely prevented”. Besides, in the experiment with CHF rats (days 10 and 21), the “Hypertrophic increase in the diastolic area” value is “completely prevented” and the “Hypertrophic increase in the systolic area” value is recorded as “completely prevented”.

For `C#CCN` [propargylamine], the Fas-mediated apoptosis result with H9c2 cells [1] (setting [9]) was “completely prevented”. Also, in [3], the “ANP mRNA elevation induced by Fas activation” value is “completely blocked”. Moreover, in [8], the “Caspase 3 cleavage, serum starvation” value is given as “decrease” and the “Expression of mitochondrial Bcl-2, serum starvation” value is recorded as “increase”. Besides, in [5], the “Doxorubicin-induced apoptosis (caspase-3 cleavage)” value is “significantly attenuated”. In experiment [6], the “Expression of anti-apoptotic PKC-ε” value was “increased”, the “Expression of mitochondrial anti-apoptotic protein Bcl-2” value is listed as “markedly increased”, the “Expression of mitochondrial pro-apoptotic protein Bax” value was “did not affect” and the “Ratio Bcl-2/Bax” value is “marked increase”. Further, the “CHF-induced increase in caspase-3” value in experiment [7] (5 mg/kg/day orally for 21 days) was “significantly reduced”. Also, in experiment [7] (5 mg/kg/day orally for 21 days (FIG. 11B)), the “CHF-induced increase in cytochrome C” value is reported as “significantly reduced”. Moreover, in the experiment on CHF rats (14 days post-surgery), the “Hypertrophic increase in the diastolic area” value is recorded as “completely prevented” and the “Hypertrophic increase in the systolic area” value is “completely prevented”. The “Reduction in fractional shortening” value in the experiment on CHF rats is given as “completely prevented”.
